System: Jurkat
Experiment: 48-hour IC50 by MTS, Jurkat acute T-cell leukemia cells
Assay type: cell-based, human
Conditions: not given
Method: (§1) Cells were grown in media supplemented with fetal bovine serum (FBS) and antibiotics (100 μg/mL penicillin and 100 U/mL streptomycin). […] Cells were incubated at 37° C. in a 5% CO2, 95% humidity atmosphere.
(§2) In a 96-well plate, compounds were pre-added as DMSO stocks (1% final) in triplicate to achieve final concentrations of 1 nM to 10 μM on a half log scale. DMSO and cell-free wells served as the live and dead control, respectively. […] IC50 values were determined from three or more independent experiments using TableCurve (San Jose, Calif.).

Row | Molecule | IC50 [µM]
1 | CO[C@@]12C[C@@H]3[C@@H](NC(=O)c4ccc(Br)n43)[C@@H]1NC(=O)N2C [(−)-5, (−)-agelastatin E] | 1.5 ± 0.33
2 | O=C1N[C@H]2[C@@H]3NC(=O)c4cc(Br)c(Br)n4[C@@H]3C[C@@]2(O)N1 [(−)-6, (−)-agelastatin F] | > 10
3 | (−)-agelastatin B [(−)-2] | 0.75 ± 0.44

System: CEM
Experiment: 48-hour IC50 by MTS, CEM acute lymphoblastic leukemia cells
Assay type: cell-based, human
Conditions: not given
Method: as §1, §2

Row | Molecule | IC50 [µM]
4 | CO[C@@]12C[C@@H]3[C@@H](NC(=O)c4ccc(Br)n43)[C@@H]1NC(=O)N2C [(−)-5, (−)-agelastatin E] | 0.83 ± 0.37
5 | O=C1N[C@H]2[C@@H]3NC(=O)c4cc(Br)c(Br)n4[C@@H]3C[C@@]2(O)N1 [(−)-6, (−)-agelastatin F] | > 10
6 | (−)-agelastatin B [(−)-2] | 0.29 ± 0.2

System: Daudi
Experiment: 48-hour IC50 by MTS, Daudi Burkitt's lymphoma cells
Assay type: cell-based, human
Conditions: not given
Method: as §1, §2

Row | Molecule | IC50 [µM]
7 | CO[C@@]12C[C@@H]3[C@@H](NC(=O)c4ccc(Br)n43)[C@@H]1NC(=O)N2C [(−)-5, (−)-agelastatin E] | 1.41 ± 0.53
8 | O=C1N[C@H]2[C@@H]3NC(=O)c4cc(Br)c(Br)n4[C@@H]3C[C@@]2(O)N1 [(−)-6, (−)-agelastatin F] | > 10
9 | (−)-agelastatin B [(−)-2] | 0.46 ± 0.28

System: CA46
Experiment: 48-hour IC50 by MTS, CA46 Burkitt's lymphoma cells
Assay type: cell-based, human
Conditions: not given
Method: as §1, §2

Row | Molecule | IC50 [µM]
10 | CO[C@@]12C[C@@H]3[C@@H](NC(=O)c4ccc(Br)n43)[C@@H]1NC(=O)N2C [(−)-5, (−)-agelastatin E] | 2.45 ± 0.95
11 | O=C1N[C@H]2[C@@H]3NC(=O)c4cc(Br)c(Br)n4[C@@H]3C[C@@]2(O)N1 [(−)-6, (−)-agelastatin F] | > 10
12 | (−)-agelastatin B [(−)-2] | 1.07 ± 0.42

System: IMR90
Experiment: 48-hour IC50 by SRB, IMR90  lung fibroblasts
Assay type: cell-based, human
Conditions: IMR90 immortalized lung fibroblasts
Method: as §1
(§3) Adherent cells (HeLa, A549, BT549, and IMR90) were added into 96-well plates (5,000 cells/well for HeLa cell line; 2,000 cells/well for A549, BT549, and IMR90 cell lines) in 100 μL media and were allowed to adhere for 2-3 hours. Compounds were solubilized in DMSO as 100× stocks, added directly to the cells (100 μL final volume), and tested over a range of concentrations (1 nM to 10 μM) in triplicate (1% DMSO final) on a half-log scale. DMSO and cell-free wells served as the live and dead control, respectively. […] Briefly, media was removed from the plate, and cells were fixed by the addition of 100 μL cold 10% trichloroacetic acid in water. After incubating at 4° C. for 1 h, the plates were washed in water and allowed to dry. Sulforhordamine B was added as a 0.057% solution in 1% acetic acid (100 μL), and the plates were incubated at room temperature for 30 min, washed in 1% acetic acid, and allowed to dry. […] IC50 values were determined from three or more independent experiments using TableCurve (San Jose, Calif.).

Row | Molecule | IC50 [µM]
13 | CO[C@@]12C[C@@H]3[C@@H](NC(=O)c4ccc(Br)n43)[C@@H]1NC(=O)N2C [(−)-5, (−)-agelastatin E] | > 10
14 | O=C1N[C@H]2[C@@H]3NC(=O)c4cc(Br)c(Br)n4[C@@H]3C[C@@]2(O)N1 [(−)-6, (−)-agelastatin F] | > 10
15 | (−)-agelastatin B [(−)-2] | > 10

System: human cell lines (U-937, HeLa, A549, BT549, IMR90)
Experiment: Ability to induce cell death in the panel of five human cell lines (Table 3)
Assay type: cell-based
Conditions: 48-hour exposure, 1 nM to 10 μM, cell lines of Table 3
Method: Six (−)-agelastatins along with eight closely related derivatives prepared in the above examples were tested (Table 3). The six (−)-agelastatin alkaloids (1-6, respectively), (−)-O-methyl-di-epi-agelastatin A (50), (−)-dehydroagelastatin A (51), (−)-di-epi-agelastatin C (52), (+)-O-methyl-pre-agelastatin A and D (39 and 53, respectively), along with bicyclic pyrroles (+)-44, (+)-45, and triazone (+)-48 were tested for their ability to induce cell death in four human cancer cell lines (U-937, lymphoma; HeLa, cervical carcinoma; A549, non-small cell lung carcinoma; and BT549, breast carcinoma) and one immortalized normal human cell line (IMR90, lung fibroblasts) after a 48-hour exposure. […] Furthermore, enhanced activities in U-937 (20×) cell relative to the other cell lines (Table 3) were observed.
Adherent cells (HeLa, A549, BT549, and IMR90) were added into 96-well plates (5,000 cells/well for HeLa cell line; 2,000 cells/well for A549, BT549, and IMR90 cell lines) in 100 μL media and were allowed to adhere for 2-3 hours. Compounds were solubilized in DMSO as 100× stocks, added directly to the cells (100 μL final volume), and tested over a range of concentrations (1 nM to 10 μM) in triplicate (1% DMSO final) on a half-log scale. DMSO and cell-free wells served as the live and dead control, respectively. After 48 h of continuous exposure, the plates were evaluated using the SRB colorimetric assay as described previously (V. Vichai, K. Kirtikara, Nature Prot., 2006, 1, 1112). Briefly, media was removed from the plate, and cells were fixed by the addition of 100 μL cold 10% trichloroacetic acid in water. After incubating at 4° C. for 1 h, the plates were washed in water and allowed to dry. Sulforhordamine B was added as a 0.057% solution in 1% acetic acid (100 μL), and the plates were incubated at room temperature for 30 min, washed in 1% acetic acid, and allowed to dry. The dye was solubilized by adding 10 mM Tris base solution (pH 10.5, 200 μL) and incubating at room temperature for 30 min Plates were read at λ=510 nm. IC50 values were determined from three or more independent experiments using TableCurve (San Jose, Calif.).
In a 96-well plate, compounds were pre-added as DMSO stocks (1% final) in triplicate to achieve final concentrations of 1 nM to 10 μM on a half log scale. DMSO and cell-free wells served as the live and dead control, respectively. Suspension cells (U-937, CEM, CA46, Daudi, HL-60, and Jurkat; 10,000 cells/well) cells were distributed in 100 μL media to the compound-containing plate. After 48 h, cell viability was assessed by adding 20 μL of a PMS/MTS solution (A. H. Cory, T. C. Owen, J. A. Barltrop, J. G. Cory, Cancer Commun., 1991, 3, 207) to each well, allowing the dye to develop at 37° C. until the live control had processed MTS, and reading the absorbance at λ=490 nm. IC50 values were determined from three or more independent experiments using TableCurve (San Jose, Calif.).

Row | Molecule | activity (ability to induce cell death) in words
16 | CO[C@@]12C[C@@H]3[C@@H](NC(=O)c4ccc(Br)n43)[C@@H]1NC(=O)N2C [(−)-5, (−)-agelastatin E] | relatively weaker activity
17 | O=C1N[C@H]2[C@@H]3NC(=O)c4cc(Br)c(Br)n4[C@@H]3C[C@@]2(O)N1 [(−)-6, (−)-agelastatin F] | little activity at the concentrations examined
18 | (−)-agelastatin B [(−)-2] | relatively weaker activity

Same assay, conditions: (−)-2 vs (−)-1, (−)-6 vs (−)-4, D (4) and E (5) vs A (1); Table 3 data

Row | Molecule | reduction in anticancer potency relative to the compared agelastatin [fold]
19 | CO[C@@]12C[C@@H]3[C@@H](NC(=O)c4ccc(Br)n43)[C@@H]1NC(=O)N2C [(−)-5, (−)-agelastatin E] | > 10

System: HL-60
Experiment: 48-hour IC50 by MTS, HL-60 acute promyelocytic leukemia cells
Assay type: cell-based, human
Conditions: not given
Method: as §1, §2

Row | Molecule | IC50 [µM]
20 | CO[C@@]12C[C@@H]3[C@@H](NC(=O)c4ccc(Br)n43)[C@@H]1NC(=O)N2C [(−)-5, (−)-agelastatin E] | 4.6 ± 3.6
21 | O=C1N[C@H]2[C@@H]3NC(=O)c4cc(Br)c(Br)n4[C@@H]3C[C@@]2(O)N1 [(−)-6, (−)-agelastatin F] | > 10
22 | (−)-agelastatin B [(−)-2] | 2.4 ± 1

System: U-937
Experiment: 48-hour IC50 by MTS, U-937 lymphoma cells
Assay type: cell-based, human
Conditions: not given
Method: as §1, §2

Row | Molecule | IC50 [µM]
23 | CO[C@@]12C[C@@H]3[C@@H](NC(=O)c4ccc(Br)n43)[C@@H]1NC(=O)N2C [(−)-5, (−)-agelastatin E] | 2.56 ± 0.13
24 | O=C1N[C@H]2[C@@H]3NC(=O)c4cc(Br)c(Br)n4[C@@H]3C[C@@]2(O)N1 [(−)-6, (−)-agelastatin F] | > 10
25 | (−)-agelastatin B [(−)-2] | 1.06 ± 0.16

System: BT549
Experiment: 48-hour IC50 by SRB, BT549 breast carcinoma cells
Assay type: cell-based, human
Conditions: not given
Method: as §1, §3

Row | Molecule | IC50 [µM]
26 | CO[C@@]12C[C@@H]3[C@@H](NC(=O)c4ccc(Br)n43)[C@@H]1NC(=O)N2C [(−)-5, (−)-agelastatin E] | 6.9 ± 2.5
27 | O=C1N[C@H]2[C@@H]3NC(=O)c4cc(Br)c(Br)n4[C@@H]3C[C@@]2(O)N1 [(−)-6, (−)-agelastatin F] | > 10
28 | (−)-agelastatin B [(−)-2] | 4.8 ± 1.1

System: A549
Experiment: 48-hour IC50 by SRB, A549 non-small cell lung carcinoma cells
Assay type: cell-based, human
Conditions: not given
Method: as §1, §3

Row | Molecule | IC50 [µM]
29 | CO[C@@]12C[C@@H]3[C@@H](NC(=O)c4ccc(Br)n43)[C@@H]1NC(=O)N2C [(−)-5, (−)-agelastatin E] | > 10
30 | O=C1N[C@H]2[C@@H]3NC(=O)c4cc(Br)c(Br)n4[C@@H]3C[C@@]2(O)N1 [(−)-6, (−)-agelastatin F] | > 10
31 | (−)-agelastatin B [(−)-2] | > 10

System: HeLa
Experiment: 48-hour IC50 by SRB, HeLa cervical carcinoma cells
Assay type: cell-based, human
Conditions: not given
Method: as §1, §3

Row | Molecule | IC50 [µM]
32 | CO[C@@]12C[C@@H]3[C@@H](NC(=O)c4ccc(Br)n43)[C@@H]1NC(=O)N2C [(−)-5, (−)-agelastatin E] | 8.6 ± 0.81
33 | O=C1N[C@H]2[C@@H]3NC(=O)c4cc(Br)c(Br)n4[C@@H]3C[C@@]2(O)N1 [(−)-6, (−)-agelastatin F] | > 10
34 | (−)-agelastatin B [(−)-2] | 4.8 ± 1.2

Source: patent US9962383B2, “Compounds, compositions and methods of agelastatin alkaloids” (Massachusetts Institute of Technology, priority 2013, dated 2018)
